Data as given in paper PMC9061857, “A fluorogenic probe for granzyme B enables in-biopsy evaluation and screening of response to anticancer immunotherapies” (Nature Communications, 2022).
Where no end group is shown, it is not given here.

What was measured:
E0771 cells = test: Flow cytometry of E0771 cells in co-culture with CD8+ T cells; assay type: cell-based, mouse; conditions: H5 5 μM
Method: Treatments with staurosporine (1 μM) were for 1 h. […]
mouse CD8+ T cells and mKate-E0771 cells. b) Representative flow cytometry contour plots of E0771 cells in: left) co-cultures of E0771 cells (50,000 cells well-1) and activated […]
cells well-1), right) E0771 alone cells treated with staurosporine (1 µM, 1 h). c) Representative flow cytometry contour plots of CD8+ T cells in: left) co-cultures of E0771 […]
2 h) murine CD8+ T cells (200,000 cells well -1). All cultures in b) and c) were equally […]
with and without preincubation of the GzmB inhibitor Ac -IEPD-CHO. Data presented as […]
633/670 nm (for AF647-Annexin V). Representative plots from independent experiments performed in triplicate. Source data in d provided as a Source Data file.

human GzmB (hGzmB) = molecular target: T1, human GzmB (hGzmB) (Homo sapiens, UniProt P10144); test: Fluorescence assay with recombinant hGzmB (fluorogenic response, time course); assay type: biochemical; conditions: for t50: probe 25 μM, hGzmB 20 nM
T1 construct: For active GzmB vs pro-GzmB, p < 0.0001
T1 sequence (P10144 21-247): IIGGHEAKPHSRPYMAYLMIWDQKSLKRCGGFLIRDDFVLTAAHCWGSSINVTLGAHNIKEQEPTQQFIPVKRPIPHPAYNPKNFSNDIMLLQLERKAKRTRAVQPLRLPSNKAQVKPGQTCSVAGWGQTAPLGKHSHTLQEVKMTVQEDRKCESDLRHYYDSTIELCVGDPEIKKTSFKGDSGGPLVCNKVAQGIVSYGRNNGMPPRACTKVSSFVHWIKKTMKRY
Method: Fluorescence-based assays with different enzymes were performed in the appropriate buffers. Probes (25 μM) were added to enzymes (20 nM or at the indicated concentrations) in 384-well plates and their fluorescence emission was recorded at 450 nm (for AMC) or 510 nm (for BODIPY) at 37 °C using a Synergy H1 Hybrid spectrophotometer. In experiments with Ac-IEPD-CHO (50 μM), the inhibitor was preincubated for 1 h with GzmB before the addition of any probe.

SCC cancer cells = test: Ex vivo flow cytometry of wild-type SCC and SCC FAK (−/−) tumors; assay type: cell-based, mouse; conditions: for Fluorescence intensity of H5 inside SCC cancer cells (525 nm) / Freq cancer cells (GzmB-positive SCC cancer cells by H5 staining): H5 5 μM, 30 min; for Mean fluorescence intensity after incubation with probe H5: SCC (-/-) tumor digests
Method: P-values from two-tailed t-tests using Welch correction. Source data (c–f) provided as a Source Data file.
All animal work was carried out in compliance with UK Home Office guidelines. SCC tumors were established and labeled for flow cytometry as previously described. Briefly, 1 × 10^6 SCC cancer cells (obtained from Dr Alan Serrels at The University of Edinburgh) were injected subcutaneously into FVB/N mice (n = 4 for both WT and FAK (−/−) groups, Sex: female, Age: 10–14 weeks, obtained from Harlan UK), which were sacrificed 14 days post-implantation and tumors disaggregated to generate a single-cell suspension. […] Data analysis was performed using FlowJo V10 software. […]
and SCC7.1 FAK-/- tumors. All cells were gated on singlets and live cells (Zombie NIR viability dye, 1:1000 dilution). Wild-type SCC and SCC FAK-/- were gated as CD45− CD140a− (AF700 & BV650, respectively). All non-cancerous and non-fibrotic cells were gated on CD45+ (AF700). Monocytes were gated on CD11b+ (PerCP-Cy5.5) whilst the remaining cells were classified as CD8+ T cells (PE), CD4+ T cells (eFluor450) or immune cells (CD4−CD8− or CD4+CD8+).
(1 picture or pasted object on this page, not shown here)

IEPDAL [H5, FRET hexapeptide IEPDAL with BODIPY-FL fluorophore at the N-terminal end and Dabcyl quencher]
cancer cells double-stained with H5 and Annexin V-AF647 (E0771 cells; E0771-La2-NLR cells cultured with activated T cells): over 80% | H5 +ve E0771 cells (E0771 cells; E0771 alone, staurosporine 1 μM, 1 h, replicate 1): 2.3% | H5 +ve E0771 cells (E0771 cells; E0771 alone, staurosporine 1 μM, 1 h, replicate 2): 1.69% | H5 +ve E0771 cells (E0771 cells; E0771 alone, staurosporine 1 μM, 1 h, replicate 3): 2.6% | H5 +ve E0771 cells (E0771 cells; co-culture with active CD8+ T cells (24 h IL-2), replicate 1): 79% | H5 +ve E0771 cells (E0771 cells; co-culture with active CD8+ T cells (24 h IL-2), replicate 2): 80% | H5 +ve E0771 cells (E0771 cells; co-culture with active CD8+ T cells (24 h IL-2), replicate 3): 76% | H5 +ve E0771 cells (E0771 cells; co-culture with inactive CD8+ T cells (2 h IL-2), replicate 1): 17% | H5 +ve E0771 cells (E0771 cells; co-culture with inactive CD8+ T cells (2 h IL-2), replicate 2): 18% | H5 +ve E0771 cells (E0771 cells; co-culture with inactive CD8+ T cells (2 h IL-2), replicate 3): 27% | specificity for hGzmB over other enzymes (human GzmB (hGzmB); caspases, granzymes, MMPs, neutrophil elastase, pro-hGzmB): minimal response to other enzymes | t50 (human GzmB (hGzmB); Data 1): 7 min | t50 (human GzmB (hGzmB); Data 2): 7 min | t50 (human GzmB (hGzmB); Data 3): 7 min | Fluorescence intensity of H5 inside SCC cancer cells (525 nm) (SCC cancer cells; SCC FAK tumor, Data 1): 17211 | Freq cancer cells (GzmB-positive SCC cancer cells by H5 staining) (SCC cancer cells; SCC FAK tumor, Data 1): 19% | Fluorescence intensity of H5 inside SCC cancer cells (525 nm) (SCC cancer cells; SCC FAK tumor, Data 2): 15125 | Freq cancer cells (GzmB-positive SCC cancer cells by H5 staining) (SCC cancer cells; SCC FAK tumor, Data 2): 45% | Fluorescence intensity of H5 inside SCC cancer cells (525 nm) (SCC cancer cells; SCC FAK tumor, Data 3): 14692 | Freq cancer cells (GzmB-positive SCC cancer cells by H5 staining) (SCC cancer cells; SCC FAK tumor, Data 3): 38% | Fluorescence intensity of H5 inside SCC cancer cells (525 nm) (SCC cancer cells; SCC FAK tumor, Data 4): 14334 | Freq cancer cells (GzmB-positive SCC cancer cells by H5 staining) (SCC cancer cells; SCC FAK tumor, Data 4): 41% | Fluorescence intensity of H5 inside SCC cancer cells (525 nm) (SCC cancer cells; SCC tumor, Data 1): 5564 | Freq cancer cells (GzmB-positive SCC cancer cells by H5 staining) (SCC cancer cells; SCC tumor, Data 1): 6% | Fluorescence intensity of H5 inside SCC cancer cells (525 nm) (SCC cancer cells; SCC tumor, Data 2): 6027 | Freq cancer cells (GzmB-positive SCC cancer cells by H5 staining) (SCC cancer cells; SCC tumor, Data 2): 4.5% | Fluorescence intensity of H5 inside SCC cancer cells (525 nm) (SCC cancer cells; SCC tumor, Data 3): 5635 | Freq cancer cells (GzmB-positive SCC cancer cells by H5 staining) (SCC cancer cells; SCC tumor, Data 3): 2.78% | Fluorescence intensity of H5 inside SCC cancer cells (525 nm) (SCC cancer cells; SCC tumor, Data 4): 5745 | Freq cancer cells (GzmB-positive SCC cancer cells by H5 staining) (SCC cancer cells; SCC tumor, Data 4): 3.77% | Mean fluorescence intensity after incubation with probe H5 (SCC cancer cells; CD4 T cells, Data 1): 3345 | Mean fluorescence intensity after incubation with probe H5 (SCC cancer cells; CD4 T cells, Data 2): 2508 | Mean fluorescence intensity after incubation with probe H5 (SCC cancer cells; CD8 T cells, Data 1): 3289 | Mean fluorescence intensity after incubation with probe H5 (SCC cancer cells; CD8 T cells, Data 2): 2980 | Mean fluorescence intensity after incubation with probe H5 (SCC cancer cells; cancer cells, Data 1): 11273 | Mean fluorescence intensity after incubation with probe H5 (SCC cancer cells; cancer cells, Data 2): 13796 | Mean fluorescence intensity after incubation with probe H5 (SCC cancer cells; immune cells (CD8-CD4-CD11b-), Data 1): 3435 | Mean fluorescence intensity after incubation with probe H5 (SCC cancer cells; immune cells (CD8-CD4-CD11b-), Data 2): 2496 | Mean fluorescence intensity after incubation with probe H5 (SCC cancer cells; monocytes / macrophages, Data 1): 2362 | Mean fluorescence intensity after incubation with probe H5 (SCC cancer cells; monocytes / macrophages, Data 2): 2247 | cancer cells labeled with probe H5 (SCC cancer cells; SCC FAK (−/−) tumors, H5 30 min): over 40%
